ChEMBL document CHEMBL4406844, “Single-molecule chemiluminescent photosensitizer for a self-activating and tumor-selective photodynamic therapy of cancer” (Eur J Med Chem, 2019)
Calls of active or inactive are those of the source. No cut-off for these calls is given here.

Experiments:
PC-3 [1] = test: Cytotoxicity against human PC3 cells assessed as reduction in cell viability at 0.1 to 100 uM incubated for 24 hrs by MTT assay; assay type: functional, cell-based
MCF7 [2] = test: Cytotoxicity against human MCF7 cells assessed as reduction in cell viability at 0.1 to 100 uM incubated for 24 hrs by MTT assay; assay type: functional, cell-based
[3] = Induction of singlet production in acetate buffer using chemiluminescent substrate by spectrofluorimetry; assay type: functional
[4] = Induction of singlet oxygen production in acetate buffer assessed as ABDA florescence quenching by spectrofluorimetry; assay type: functional
[5] = Induction of singlet production in methanol in presence of potassium superoxide using chemiluminescent substrate by spectrofluorimetry; assay type: functional
[6] = Induction of singlet production in methanol in presence of potassium superoxide using chemiluminescent substrate incubated for 30 mins in N2-bubbling by spectrofluorimetry relative to control; assay type: functional
[7] = Induction of singlet production in methanol in presence of potassium superoxide using chemiluminescent substrate incubated for 30 mins in liquid nitrogen temperature by spectrofluorimetry; assay type: functional
[8] = Induction of singlet oxygen production in methanol assessed as ABDA florescence quenching in presence of potassium superoxide by spectrofluorimetry; assay type: functional
PC-3 [9] = test: Cytotoxicity against human PC3 cells assessed as reduction in cell viability at >75 uM incubated for 24 hrs by MTT assay relative to control; assay type: functional
MCF7 [10] = test: Cytotoxicity against human MCF7 cells assessed as reduction in cell viability at 0.1 uM incubated for 24 hrs by MTT assay; assay type: functional, cell-based
MCF-10A = test: Cytotoxicity against human MCF10A cells assessed as reduction in cell viability at 0.1 to 100 uM incubated for 24 hrs by MTT assay; assay type: cell-based
[11] = Induction of singlet oxygen production in methanol assessed as ABDA florescence quenching by spectrofluorimetry; assay type: functional

In the case of `CN(C)C(=N)NC(=N)N`, the Activity (PC-3 [1]) is reported as “Active”.
For `CC/C(=C(\c1ccccc1)c1ccc(OCCN(C)C)cc1)c1ccccc1`, the Activity (MCF7 [2]) was “Active”.
With `CC(=O)Nc1cnc(Br)cn1` the Activity [3] was “Active” and the Activity [4] was “Active”.
For `Cc1nc2c[nH]c(-c3ccc(Br)cc3)cn-2c1=O`, the Activity [5] was “Active”, the Activity [6] was “Active” and the Activity [7] was “Active”. For the same compound, the Activity [8] was “Active”, the Activity (PC-3 [9]) was >50% and the Activity (MCF7 [10]) was “Active”. For the same compound, the Activity (MCF-10A) was “Non-Toxic”.
In the case of `O=c1c(Cc2ccc(O)cc2)nc2c(Cc3ccccc3)[nH]c(-c3ccc(O)cc3)cn1-2`, the Activity [3] is reported as “Active”, the Activity [6] is reported as “inactive” and the Activity [11] is reported as “inactive”. The Activity (PC-3 [1]) was “Active” and the Activity (MCF7 [2]) was “inactive”.
